Experimental data: ChEMBL document CHEMBL1201862, “PubChem BioAssay data set” (2004)
Active and inactive are the calls of the source.

How the values were obtained:
[1] = biological target: T1, DNA repair protein RAD52 homolog (Homo sapiens, UniProt P43351); assay type: functional, biochemical
T1 sequence (P43351 whole entry): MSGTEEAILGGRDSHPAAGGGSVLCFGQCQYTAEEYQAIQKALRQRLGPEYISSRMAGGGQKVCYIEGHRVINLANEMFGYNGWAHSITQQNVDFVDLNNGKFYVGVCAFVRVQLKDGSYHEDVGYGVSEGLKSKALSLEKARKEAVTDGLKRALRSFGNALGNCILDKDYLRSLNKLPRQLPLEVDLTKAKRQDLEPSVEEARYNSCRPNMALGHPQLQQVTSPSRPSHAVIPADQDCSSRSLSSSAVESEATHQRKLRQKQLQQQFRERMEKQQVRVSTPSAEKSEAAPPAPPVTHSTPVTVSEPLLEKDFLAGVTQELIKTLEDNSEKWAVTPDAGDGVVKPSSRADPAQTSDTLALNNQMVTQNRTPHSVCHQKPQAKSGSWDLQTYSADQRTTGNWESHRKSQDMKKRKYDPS

cells [2] = assay type: functional, cell-based
[3] = biological target: T2, Trace amine-associated receptor 1 (Homo sapiens, UniProt Q96RJ0); assay: Counterscreen for agonists of the human trace amine associated receptor 1 (hTAAR1): Fluorescence-based cell-based high throughput dose response assay to identify hTAAR1 agonist that also desensitize TAAR1 receptor response.; assay type: functional
T2 sequence (Q96RJ0 whole entry): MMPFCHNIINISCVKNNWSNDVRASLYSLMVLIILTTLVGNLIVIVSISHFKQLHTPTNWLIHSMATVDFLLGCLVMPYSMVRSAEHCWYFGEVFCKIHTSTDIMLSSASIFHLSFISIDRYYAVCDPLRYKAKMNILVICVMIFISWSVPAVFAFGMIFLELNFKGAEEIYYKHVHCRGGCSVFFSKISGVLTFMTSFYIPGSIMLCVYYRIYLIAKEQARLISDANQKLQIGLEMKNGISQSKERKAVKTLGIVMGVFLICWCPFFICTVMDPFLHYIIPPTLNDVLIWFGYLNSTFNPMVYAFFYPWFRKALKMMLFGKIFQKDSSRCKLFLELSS

[4] = biological target: T2, Trace amine-associated receptor 1; assay: Fluorescence-based cell-based high throughput dose response assay to identify agonists of the human trace amine associated receptor 1 (TAAR1).; assay type: functional
cells [5] = assay type: functional, cell-based; remark: listed apart in the source
[6] = biological target: T3, Probable nicotinate-nucleotide adenylyltransferase (Staphylococcus aureus (strain N315), UniProt P65502); assay type: functional, Staphylococcus aureus subsp. aureus N315;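 on IC50 Mean: confirmatory dose-response retesting of NadD inhibitor hits first found in an ultra-high-throughput screen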
T3 sequence (P65502 whole entry): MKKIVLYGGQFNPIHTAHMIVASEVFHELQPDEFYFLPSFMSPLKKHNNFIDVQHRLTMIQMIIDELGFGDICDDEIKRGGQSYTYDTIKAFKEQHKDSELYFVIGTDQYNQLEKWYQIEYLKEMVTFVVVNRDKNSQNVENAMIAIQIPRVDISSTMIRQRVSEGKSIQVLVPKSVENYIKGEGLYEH

[7] = biological target: T3, Probable nicotinate-nucleotide adenylyltransferase; assay type: functional, Staphylococcus aureus subsp. aureus N315; details: read-out: IC50_Mean
[8] = Luminescence Cell-Based Dose Retest to Confirm Inhibitors of Cancer Stem Cells. [Related pubchem assays (depositor defined):AID2717, AID2721]; assay type: functional; details: Homo sapiens
[9] = biological target: T4, Microphthalmia-associated transcription factor (Homo sapiens, UniProt O75030); assay: reducers of TRPM1 reporter luminescence, concentration series – cell-based, SK-MEL-5, cherry-picked, set 3, MITF inhibitor project, dose response (AID 493073); assay type: functional;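 further: SK-MEL-5 melanoma cells with luciferase driven by the MITF target TRPM1 promoter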
T4 sequence (O75030 whole entry): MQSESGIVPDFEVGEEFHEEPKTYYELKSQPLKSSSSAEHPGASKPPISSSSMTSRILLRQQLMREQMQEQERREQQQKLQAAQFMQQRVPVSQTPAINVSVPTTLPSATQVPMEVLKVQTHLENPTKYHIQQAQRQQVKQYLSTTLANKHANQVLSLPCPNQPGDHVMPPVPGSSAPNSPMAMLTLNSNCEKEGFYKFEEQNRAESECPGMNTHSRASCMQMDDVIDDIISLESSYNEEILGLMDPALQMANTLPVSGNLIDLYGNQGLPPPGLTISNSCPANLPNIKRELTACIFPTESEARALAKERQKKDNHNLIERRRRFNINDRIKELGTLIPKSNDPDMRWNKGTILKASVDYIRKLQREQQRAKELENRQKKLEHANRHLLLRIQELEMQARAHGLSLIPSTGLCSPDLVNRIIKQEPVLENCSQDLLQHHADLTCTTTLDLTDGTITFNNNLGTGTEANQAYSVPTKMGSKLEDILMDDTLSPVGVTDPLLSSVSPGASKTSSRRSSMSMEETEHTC

Protein RecA = biological target: T5, Protein RecA (Mycobacterium tuberculosis, UniProt P9WHJ3); assay: Fluorescence Cell-Free Homogeneous Dose Retest to Identify Inhibitors of RecA-Intein Splicing Activity. [Related pubchem assays (depositor defined):AID2097, AID2223, AID489010, AID492950]; assay type: functional
T5 sequence (P9WHJ3 whole entry): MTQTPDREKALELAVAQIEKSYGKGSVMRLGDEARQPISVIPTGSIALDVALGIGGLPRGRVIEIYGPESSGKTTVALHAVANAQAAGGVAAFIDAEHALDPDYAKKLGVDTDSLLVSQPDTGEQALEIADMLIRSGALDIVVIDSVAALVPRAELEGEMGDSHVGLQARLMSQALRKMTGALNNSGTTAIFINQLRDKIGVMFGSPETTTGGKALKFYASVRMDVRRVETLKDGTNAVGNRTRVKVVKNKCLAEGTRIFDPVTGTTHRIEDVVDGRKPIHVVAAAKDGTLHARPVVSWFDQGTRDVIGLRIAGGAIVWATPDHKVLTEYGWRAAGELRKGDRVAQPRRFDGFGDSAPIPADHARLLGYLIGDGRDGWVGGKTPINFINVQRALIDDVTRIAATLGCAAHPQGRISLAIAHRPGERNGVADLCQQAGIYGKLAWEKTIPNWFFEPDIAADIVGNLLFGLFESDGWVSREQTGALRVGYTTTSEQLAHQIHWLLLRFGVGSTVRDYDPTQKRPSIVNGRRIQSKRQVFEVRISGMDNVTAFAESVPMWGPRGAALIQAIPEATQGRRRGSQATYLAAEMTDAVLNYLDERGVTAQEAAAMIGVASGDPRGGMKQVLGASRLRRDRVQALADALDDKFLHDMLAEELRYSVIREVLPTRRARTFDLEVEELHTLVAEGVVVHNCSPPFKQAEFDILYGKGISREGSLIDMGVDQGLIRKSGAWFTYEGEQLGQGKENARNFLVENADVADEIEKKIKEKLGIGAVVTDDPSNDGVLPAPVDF

[10] = non-specific 3'UTR reporter inhibition in Clone20-Shn3RL – cell-based, Renilla luciferase, cherry-picked, counter-screen for Shn3 inhibitor project, dose response (AID 624133); assay type: functional
[11] = biological target: T6, Replicative DNA helicase DnaB (Mycobacterium tuberculosis, UniProt P9WMR3); assay: DnaB intein splicing inhibitors, dose response, biochemical, cell-free fluorescence (AID 449749); assay type: functional
T6 sequence (P9WMR3 whole entry): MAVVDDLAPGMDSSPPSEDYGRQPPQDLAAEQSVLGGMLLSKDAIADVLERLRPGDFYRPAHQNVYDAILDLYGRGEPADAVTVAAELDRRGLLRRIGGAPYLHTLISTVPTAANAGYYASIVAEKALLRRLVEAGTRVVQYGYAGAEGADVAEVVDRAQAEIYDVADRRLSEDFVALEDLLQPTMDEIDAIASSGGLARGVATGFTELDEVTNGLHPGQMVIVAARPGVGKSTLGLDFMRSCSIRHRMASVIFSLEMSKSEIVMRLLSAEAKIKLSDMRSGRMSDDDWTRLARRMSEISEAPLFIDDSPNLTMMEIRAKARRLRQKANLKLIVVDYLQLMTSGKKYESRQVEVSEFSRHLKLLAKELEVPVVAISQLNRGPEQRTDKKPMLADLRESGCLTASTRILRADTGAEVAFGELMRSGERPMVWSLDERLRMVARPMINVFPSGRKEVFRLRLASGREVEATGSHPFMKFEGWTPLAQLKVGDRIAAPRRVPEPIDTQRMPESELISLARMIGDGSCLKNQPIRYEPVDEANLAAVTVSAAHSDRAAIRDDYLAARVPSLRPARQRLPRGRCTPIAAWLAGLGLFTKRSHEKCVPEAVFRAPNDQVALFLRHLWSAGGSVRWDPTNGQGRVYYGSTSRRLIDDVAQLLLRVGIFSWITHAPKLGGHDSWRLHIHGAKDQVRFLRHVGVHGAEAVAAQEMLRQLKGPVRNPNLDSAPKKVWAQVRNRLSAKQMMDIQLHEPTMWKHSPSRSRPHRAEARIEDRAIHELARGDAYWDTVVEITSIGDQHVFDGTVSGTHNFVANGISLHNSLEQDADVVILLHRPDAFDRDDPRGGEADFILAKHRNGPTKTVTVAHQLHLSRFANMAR

cells [12] = assay type: functional, cell-based; remark: listed apart in the source
[13] = loss of viability in HepG2 cells – cell-based, CellTiter-Glo, cherry-picked, cytotoxicity control for Shn3 inhibitor project, dose response (AID 624134); assay type: functional
cells [14] = assay type: functional, cell-based; remark: listed apart in the source
[15] = reduction of Shn3 3'UTR-driven luciferase in osteoblasts – cell-based, Clone20 osteoblasts, firefly luciferase, cherry-picked, dose response (AID 624132); assay type: functional;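 further: firefly luciferase luminescence from reporter carrying the Shn3 3'UTR in osteoblasts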
[16] = Fluorescence-based cell-based high throughput dose response assay for inhibitors of the interaction of nucleotide-binding oligomerization domain containing 2 (NOD2) and the receptor-interacting serine-threonine kinase 2 (RIPK2).; assay type: functional; details: Homo sapiens
Protein Wnt-3a = Protein Wnt-3a (Mus musculus, UniProt P27467); assay: antagonism of Wnt3a pathway luciferase reporter – Wnt-LIGHT cells, luminescence, selectivity assay for Gli-SUFU antagonist project, dose response (AID 651570); assay type: functional; details: read-out: IC50_Mean;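 further: Wnt-LIGHT reporter cells stimulated with conditioned medium from Wnt3a-producing cells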
Chain of Protein Wnt-3a (P27467 whole entry): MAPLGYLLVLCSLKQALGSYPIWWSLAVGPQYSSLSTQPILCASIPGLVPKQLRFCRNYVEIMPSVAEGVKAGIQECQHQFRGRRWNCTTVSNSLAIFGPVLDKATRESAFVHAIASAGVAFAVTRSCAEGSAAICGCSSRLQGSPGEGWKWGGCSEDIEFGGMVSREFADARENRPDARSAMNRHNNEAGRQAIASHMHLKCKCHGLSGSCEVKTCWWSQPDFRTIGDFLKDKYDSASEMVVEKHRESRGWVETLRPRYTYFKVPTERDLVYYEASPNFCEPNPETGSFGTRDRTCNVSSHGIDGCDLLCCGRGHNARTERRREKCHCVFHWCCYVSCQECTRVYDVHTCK

[17] = HEK-293T cell viability reduction – luminescence, B-cell screen hits, cytotoxicity control for BCR NF-kB inhibitor project, dose response (AID 489021); assay type: functional, cell-based;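 further: HEK-293T cells carrying an NF-kB luciferase reporter; cells exposed to compound for about 14 hours before viability readout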
Paired box protein Pax-8 = Paired box protein Pax-8 (Homo sapiens, UniProt Q06710); assay: PAX8 transcriptional activity inhibition in RMG-I – RMG-I cells, luciferase, cherry-pick, dose response (AID 687027); assay type: functional, cell-based;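 further: luciferase reporter driven by Pax8 target thyroperoxidase promoter measured by SteadyGlo luminescence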
Chain of Paired box protein Pax-8 (Q06710 whole entry, the tested form may be a part): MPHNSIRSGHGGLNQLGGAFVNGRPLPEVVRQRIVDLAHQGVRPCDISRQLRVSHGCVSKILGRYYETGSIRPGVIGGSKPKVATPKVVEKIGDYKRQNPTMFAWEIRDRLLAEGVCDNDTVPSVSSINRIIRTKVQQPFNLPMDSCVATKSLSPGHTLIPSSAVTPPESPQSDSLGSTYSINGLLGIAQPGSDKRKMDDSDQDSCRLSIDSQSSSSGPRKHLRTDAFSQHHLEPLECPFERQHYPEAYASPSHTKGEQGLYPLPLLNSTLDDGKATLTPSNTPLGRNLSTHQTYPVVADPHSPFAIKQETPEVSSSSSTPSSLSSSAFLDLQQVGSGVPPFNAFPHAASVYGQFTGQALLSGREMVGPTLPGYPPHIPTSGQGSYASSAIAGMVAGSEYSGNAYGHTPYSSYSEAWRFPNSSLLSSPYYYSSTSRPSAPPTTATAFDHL

[18] = biological target: Photoreceptor-specific nuclear receptor (Homo sapiens, UniProt Q9Y5X4); assay type: functional, cell-based;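 further: CHO-S cells with Gal4-NCOR and VP16-NR2E3 two-hybrid luciferase reporter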
Chain of Photoreceptor-specific nuclear receptor (Q9Y5X4 whole entry, the tested form may be a part): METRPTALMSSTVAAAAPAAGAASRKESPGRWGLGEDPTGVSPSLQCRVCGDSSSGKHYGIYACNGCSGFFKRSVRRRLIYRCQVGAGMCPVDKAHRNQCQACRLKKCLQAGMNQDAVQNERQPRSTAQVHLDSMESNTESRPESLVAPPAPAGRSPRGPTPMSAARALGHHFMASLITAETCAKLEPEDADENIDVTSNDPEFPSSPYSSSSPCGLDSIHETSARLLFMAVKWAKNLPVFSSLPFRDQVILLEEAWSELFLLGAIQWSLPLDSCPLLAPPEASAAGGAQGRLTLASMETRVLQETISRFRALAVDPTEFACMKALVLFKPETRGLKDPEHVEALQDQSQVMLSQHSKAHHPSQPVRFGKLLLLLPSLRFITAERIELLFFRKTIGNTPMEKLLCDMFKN

[19] = intracellular Trypanosoma cruzi inhibitors in host cells – cell-based, plate reader, cherry-pick samples, set 3, dose response (AID 651818); assay type: functional;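 further: compounds incubated with infected cells for about four days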

## Cc1cccc2sc(N(CCCN(C)C)C(=O)c3ccc(Cl)s3)nc12
[1]
  AC50: 24.9 µM (active)

## O=C(CC1Nc2ccccc2NC1=O)NCCc1ccccc1 (stereo unspecified)
Cells [2]
  IC50: > 29.9 µM (inactive)
[3]
  IC50: 7.18 µM (active)
[4]
  EC50: 2.27 µM (active)
Cells [5]
  EC50: > 29.9 µM (inactive)

## O=C(O)/C=C/C(=O)NCCc1cccc(Cl)c1
Cells [2]
  IC50: > 29.9 µM (inactive)
[3]
  IC50: 3.77 µM (active)
[4]
  EC50: 0.7 µM (active)
Cells [5]
  EC50: > 29.9 µM (inactive)

## Cc1ccc(Cn2nnc3c(O)nc(C4CCN(S(=O)(=O)c5ccc(S(=O)(=O)NC6CC6)cc5)CC4)nc32)cc1
[6]
  IC50: 23.7 µM (active)
[7]
  IC50: 54.4 µM (active)

## COc1ccccc1-c1cc(C(F)(F)F)nc(S(C)(=O)=O)n1
[8]
  AC50: 5.07 µM (active)
[9]
  AC50: 6.81 µM (active)
Protein RecA
  EC50: 10 µM (active)
[10]
  AC50: 12.4 µM (active)
[11]
  AC50: 5.35 µM (active)
Cells [12]
  EC50: > 350 µM (not active)
[13]
  AC50: 37.6 µM (active)
Cells [14]
  EC50: > 350 µM (not active)
[15]
  AC50: 4.06 µM (active)
[16]
  IC50: 3.63 µM (active)

## CCN(CC(=O)Nc1c(F)cccc1F)C(=O)c1cc(S(=O)(=O)N(CC)CC)ccc1N1CCCCC1
Protein Wnt-3a
  IC50: 11.4 µM (active)
[17]
  IC50: > 80 µM (inactive)
Paired box protein Pax-8
  AC50: 3.02 µM (active)

## O=C(C(=Cc1ccccc1)CN1CCCCC1)c1ccccc1
[18]
  IC50: 3.73 µM (active)
[10]
  AC50: 5.08 µM (active)
[13]
  AC50: 8.28 µM (active)
[15]
  AC50: 3.18 µM (active)

## O=C(NCC1CCCO1)c1ccc(NC(=O)c2ccc(Br)cc2)cc1 (stereo unspecified)
Cells [2]
  IC50: > 29.9 µM (inactive)
[3]
  IC50: > 29.9 µM (inactive)
[4]
  EC50: 1.45 µM (active)
Cells [5]
  EC50: > 29.9 µM (inactive)

## Cc1ccc(S(=O)(=O)Nc2ccc(Nc3nccn4c(-c5ccccc5Oc5ccccc5)cnc34)cc2)cc1
[6]
  IC50: 10.4 µM (active)
[7]
  IC50: 20.1 µM (active)

## C[C@@H]1CN([C@H](C)CO)C(=O)c2cccc(NC(=O)Nc3ccc(C(F)(F)F)cc3)c2O[C@@H]1CN(C)S(=O)(=O)c1ccc(Cl)cc1
[19]
  AC50: 3.52 µM (active)

## Cc1ccc(S(=O)(=O)Nc2cccc3c2O[C@@H](CN(C)Cc2ccc(C(=O)Nc4ccccc4N)cc2)[C@H](C)CN([C@H](C)CO)C3=O)cc1
[19]
  AC50: 3.87 µM (active)

## C[C@H](CO)N1C[C@H](C)[C@H](CN(C)Cc2ccc(Cl)c(Cl)c2)Oc2ccc(NC(=O)Nc3ccc(C(F)(F)F)cc3)cc2C1=O
[19]
  AC50: 3.24 µM (active)

## COc1ccc(NC(=O)Nc2ccc3c(c2)CC(=O)N([C@H](C)CO)C[C@@H](C)[C@@H](CN(C)Cc2ccc(Cl)c(Cl)c2)O3)cc1
[19]
  AC50: 3.35 µM (active)

## COc1ccc(CC2=NCCc3cc(OC)c(OC)cc32)cc1OC
[1]
  AC50: 15.2 µM (active)

## Cc1ccc(-n2nc(C)c(/C=N/c3ccc(S(=O)(=O)Nc4nccs4)cc3)c2O)cc1C
[6]
  IC50: 4.08 µM (active)
[7]
  IC50: 17.4 µM (active)
